Data published in ChEMBL document CHEMBL2311533, “Pentacyclic hemiacetal sterol with antifouling and cytotoxic activities from the soft coral Nephthea sp” (Bioorg Med Chem Lett, 2013).
≈ marks a conversion by molar mass, not a printed value.

Assays:
HeLa = assay: Cytotoxicity against human HeLa cells incubated for 48 hrs by MTT assay; format: functional, cell-based
[1] = Toxicity against Bugula neritina larvae
[2] = Antifouling activity against Bugula neritina larvae; format: functional
[3] = Selectivity index, ratio of cytotoxic LC50 to antifouling EC50 in Bugula neritina larvae

Row | SMILES | IC50 (HeLa) | LC50 [1] | EC50 [2] | Selectivity Index [3]
1 | CC(=O)O[C@H]1O[C@H](CCC(C)C)[C@@H](C)[C@H]2CC[C@H]3[C@@H]4CCC5=CC(=O)C=C[C@]5(C)[C@H]4CC[C@]123 | 19.6 µg/mL (≈ 43.1 µM) | > 25 µg/mL | > 25 µg/mL | 
2 | CC(C)CC[C@H]1OC(O)[C@]23CC[C@H]4[C@@H](CCC5=CC(=O)C=C[C@@]54C)[C@@H]2CC[C@@H]3[C@@H]1C (mixture of isomers) [NEPHTHOACETAL] | 12.3 µg/mL | > 25 µg/mL | 2.5 µg/mL | >10
3 | CC(=O)O[C@@H]1O[C@H](CCC(C)C)[C@@H](C)[C@H]2CC[C@H]3[C@@H]4CCC5=CC(=O)C=C[C@]5(C)[C@H]4CC[C@]123 | 10.1 µg/mL (≈ 22.2 µM) | > 25 µg/mL | > 25 µg/mL | 
